Test results: patent US9567358B2, “Methods of treatment using N-(3-fluorophenyl)-2-{3-[(7-{3-[ethyl(2-hydroxyethyl)amino]propoxy}-quinazolin-4-yl)amino]-1H-pyrazol-5-yl}acetamide” (AstraZeneca AB, priority 2002, dated 2017)

Assays:
[1] = biological target: T1, Aurora-A (Homo sapiens, UniProt O14965); experiment: In vitro Aurora-A kinase inhibition test; assay type: biochemical
T1 construct: 6 histidine tag with spacer region and rTEV protease cleavage site (pFastBac HTc) (N); made in house; host or cells: Spodoptera frugiperda Sf21 insect cells (baculovirus)
T1 sequence (O14965 1-403): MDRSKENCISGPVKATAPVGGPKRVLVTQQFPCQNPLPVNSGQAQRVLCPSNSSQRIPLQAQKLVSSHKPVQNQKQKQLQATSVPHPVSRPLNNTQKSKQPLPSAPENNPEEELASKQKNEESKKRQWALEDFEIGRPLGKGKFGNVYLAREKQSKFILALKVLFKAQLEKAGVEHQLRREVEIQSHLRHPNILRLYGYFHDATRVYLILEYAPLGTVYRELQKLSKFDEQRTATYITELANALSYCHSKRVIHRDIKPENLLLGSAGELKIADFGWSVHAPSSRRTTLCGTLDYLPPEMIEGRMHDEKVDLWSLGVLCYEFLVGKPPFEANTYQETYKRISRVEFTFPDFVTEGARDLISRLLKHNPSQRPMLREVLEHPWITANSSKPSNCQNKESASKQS

[2] = biological target: T2, Aurora-B (Homo sapiens, UniProt Q96GD4); experiment: In vitro Aurora-B kinase inhibition test; assay type: biochemical; details: recombinant Aurora-B, 33P-ATP peptide substrate filter assay, 60 minutes, room temperature; read-out: concentration giving 50% inhibition of enzyme activity
T2 construct: 6-histidine tag; made in house; host or cells: Spodoptera frugiperda Sf21 insect cells (baculovirus)
T2 sequence (Q96GD4 whole entry): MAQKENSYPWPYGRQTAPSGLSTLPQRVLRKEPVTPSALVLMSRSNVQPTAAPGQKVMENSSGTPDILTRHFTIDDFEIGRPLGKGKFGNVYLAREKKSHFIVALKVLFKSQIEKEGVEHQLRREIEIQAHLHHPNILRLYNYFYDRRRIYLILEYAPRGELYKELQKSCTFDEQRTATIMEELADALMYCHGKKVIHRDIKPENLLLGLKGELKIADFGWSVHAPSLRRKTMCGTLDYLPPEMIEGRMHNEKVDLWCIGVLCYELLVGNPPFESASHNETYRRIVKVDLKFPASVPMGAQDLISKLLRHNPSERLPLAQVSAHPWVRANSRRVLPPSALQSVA
Text: (b) In Vitro Aurora-B Kinase Inhibition Test
This assay determines the ability of a test compound to inhibit serine-threonine kinase activity. DNA encoding Aurora-B may be obtained by total gene synthesis or by cloning. This DNA may then be expressed in a suitable expression system to obtain polypeptide with serine-threonine kinase activity. In the case of Aurora-B, the coding sequence was isolated from cDNA by polymerase chain reaction (PCR) and cloned into the pFastBac system in a manner similar to that described above for Aurora-A (i.e. to direct expression of a 6-histidine tagged Aurora-B protein).
For the large scale expression of Aurora-B kinase activity, Sf21 insect cells were grown at 28° C. in TC100 medium supplemented with 10% foetal calf serum (Viralex) and 0.2% F68 Pluronic (Sigma) on a Wheaton roller rig at 3 r.p.m. When the cell density reached 1.2×10^6 cells ml^−1 they were infected with plaque-pure Aurora-B recombinant virus at a multiplicity of infection of 1 and harvested 48 hours later. All subsequent purification steps were performed at 4° C. […]

[3] = test system: human tumour cell line SW620; experiment: In vitro cell proliferation assay (BrdU incorporation); assay type: cell-based; details: SW-620, SW620 cells, 48 hours with compound, 2 hour BrdU labelling, read-out: active at (concentration giving 50% inhibition of BrdU incorporation)
Text: (c) In Vitro Cell Proliferation Assay
This and other assays can be used to determine the ability of a test compound to inhibit the growth of adherent mammalian cell lines, for example the human tumour cell line SW620 (ATCC CCL-227). This assay determines the ability of at test compound to inhibit the incorporation of the thymidine analogue, 5′-bromo-2′-deoxy-uridine (BrdU) into cellular DNA. SW620 or other adherent cells were typically seeded at 1×10^5 cells per well in L-15 media (GIBCO) plus 5% foetal calf serum, 1% L-glutamine (100 μl/well) in 96 well tissue culture treated 96 well plates (Costar) and allowed to adhere overnight. […] The optical density of the wells was then determined at 690 nm wavelength using a Titertek Multiscan plate reader. […]

## COc1cc2c(Nc3cc(CC(=O)Nc4cccc(F)c4)[nH]n3)ncnc2cc1OCCCN1CCC[C@H]1COP(=O)(O)O [Compound 5, {(2S)-1-[3-({4-[(5-{2-[(3-fluorophenyl)amino]-2-oxoethyl}-1H-pyrazol-3-yl)amino]-6-methoxyquinazolin-7-yl}oxy)propyl]pyrrolidin-2-yl}methyl dihydrogen phosphate]
[1]
  IC50: 5.5 nM
[2]
  IC50: 1.6 nM
[3]
  IC50: 0.1 nM
